Assays:
[1] = test system: MCF-7 breast cancer cell line; test: Antiproliferation study, MTT cell viability assay; format: cell-based; conditions: Homo sapiens, MCF7, 72 h, antiproliferative activity, MTT, 72 h; read-out: IC50 (μM) MCF-7 cell line
Summary of the method: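 Cells seeded at 2.5×10^4 cells/ml and grown 24 h at 37 °C before compound treatment; vehicle 1% v/v ethanol. MTT at 1 mg/mL final for 2 h at 37 °C, then DMSO solubilisation and absorbance read. Viability expressed as % of untreated control, in triplicate, with compounds tested as free bases.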

RPMI-8226 = test: NCI60 cell line screen; conditions: Homo sapiens
A549/ATCC = test: NCI60 cell line screen; conditions: Homo sapiens
HOP-92 = test: NCI60 cell line screen; conditions: Homo sapiens
NCI-H226 = test: NCI60 cell line screen; conditions: Homo sapiens
NCI-H23 = test: NCI60 cell line screen; conditions: Homo sapiens
NCI-H460 = test: NCI60 cell line screen; conditions: Homo sapiens
COLO 205 = test: NCI60 cell line screen; conditions: Homo sapiens
HCT-2998 = test: NCI60 cell line screen
HCT-15 = test: NCI60 cell line screen; conditions: Homo sapiens
KM12 = test: NCI60 cell line screen; conditions: Homo sapiens
SW-620 = test: NCI60 cell line screen; conditions: Homo sapiens
SF-268 = test: NCI60 cell line screen; conditions: Homo sapiens
SF-295 = test: NCI60 cell line screen; conditions: Homo sapiens
SNB-19 = test: NCI60 cell line screen; conditions: Homo sapiens
U251 = test: NCI60 cell line screen; conditions: Homo sapiens, U-251
LOX IMVI = test: NCI60 cell line screen; conditions: Homo sapiens
M14 = test: NCI60 cell line screen; conditions: Homo sapiens
SK-MEL-2 = test: NCI60 cell line screen; conditions: Homo sapiens
SK-MEL-28 = test: NCI60 cell line screen; conditions: Homo sapiens
UACC-257 = test: NCI60 cell line screen; conditions: Homo sapiens
IGROV1 = test: NCI60 cell line screen; conditions: Homo sapiens, IGROV-1
OVCAR-4 = test: NCI60 cell line screen; conditions: Homo sapiens
OVCAR-5 = test: NCI60 cell line screen; conditions: Homo sapiens
OVCAR-8 = test: NCI60 cell line screen; conditions: Homo sapiens
786-0 = test: NCI60 cell line screen; conditions: Homo sapiens
A498 = test: NCI60 cell line screen; conditions: Homo sapiens
ACHN = test: NCI60 cell line screen; conditions: Homo sapiens
RXF 393 = test: NCI60 cell line screen; conditions: Homo sapiens
TK-10 = test: NCI60 cell line screen; conditions: Homo sapiens
DU-145 = test: NCI60 cell line screen; conditions: Homo sapiens
NCI/ADR-RES = test: NCI60 cell line screen; conditions: Homo sapiens
MDA-MB-231/ATCC = test: NCI60 cell line screen; conditions: Homo sapiens
MDA-MB-435 = test: NCI60 cell line screen; conditions: Homo sapiens
BT-549 = test: NCI60 cell line screen; conditions: Homo sapiens
T-47D = test: NCI60 cell line screen; conditions: Homo sapiens, T47D

| Compound | IC50 [1] | melting point | GI50 (RPMI-8226) | GI50 (A549/ATCC) | GI50 (HOP-92) | GI50 (NCI-H226) | GI50 (NCI-H23) | GI50 (NCI-H460) | GI50 (COLO 205) | GI50 (HCT-2998) | GI50 (HCT-15) | GI50 (KM12) | GI50 (SW-620) | GI50 (SF-268) | GI50 (SF-295) | GI50 (SNB-19) | GI50 (U251) | GI50 (LOX IMVI) | GI50 (M14) | GI50 (SK-MEL-2) | also measured |
| --- | --- | --- | --- | --- | --- | --- | --- | --- | --- | --- | --- | --- | --- | --- | --- | --- | --- | --- | --- | --- | --- |
| COc1ccc(C2C(c3ccccc3)C(=O)N2c2cc(OC)c(OC)c(OC)c2)cc1O (stereo not drawn) [Compound 4, 4-(3-Hydroxy-4-methoxyphenyl)-3-phenyl-1-(3,4,5-trimethoxyphenyl)-azetidin-2-one] | 0.0096 µM | 110 °C | < 10 nM | < 10 nM | 5.15 µM | < 10 nM | < 10 nM | < 10 nM | 19 nM | 35 nM | < 10 nM | < 10 nM | < 10 nM | < 10 nM | < 10 nM | 25 nM | < 10 nM | < 10 nM | < 10 nM | 0.014 µM | GI50 (SK-MEL-28): < 10 nM; GI50 (UACC-257): 22.4 µM; GI50 (IGROV1): < 10 nM; GI50 (OVCAR-4): 18 nM; GI50 (OVCAR-5): 38 nM; GI50 (OVCAR-8): 10 nM; GI50 (786-0): 34 nM; GI50 (A498): < 10 nM; GI50 (ACHN): < 10 nM; GI50 (RXF 393): < 10 nM; GI50 (TK-10): < 0.01 µM; GI50 (DU-145): < 10 nM; GI50 (NCI/ADR-RES): < 10 nM; GI50 (MDA-MB-231/ATCC): < 10 nM; GI50 (MDA-MB-435): < 10 nM; GI50 (BT-549): < 10 nM; GI50 (T-47D): 31.2 µM |
| COc1ccc(C2C(c3cccs3)C(=O)N2c2cc(OC)c(OC)c(OC)c2)cc1 (stereo not drawn) [Compound 12, 4-(4-Methoxyphenyl)-3-thiophen-2-yl-1-(3,4,5-trimethoxyphenyl)-azetidin-2-one] | 0.064 µM | 115 °C | < 10 nM | 23 nM | 0.051 µM | < 10 nM | 36 nM | 30 nM | 15 nM | 30 nM | 26 nM | < 10 nM | 10 nM | 28 nM | < 10 nM | 43 nM | 37 nM | < 10 nM | < 10 nM | 7.79 µM | GI50 (SK-MEL-28): 10 nM; GI50 (UACC-257): 67.8 µM; GI50 (IGROV1): 20 nM; GI50 (OVCAR-4): 13 nM; GI50 (OVCAR-5): 51 nM; GI50 (OVCAR-8): < 10 nM; GI50 (786-0): 31 nM; GI50 (A498): < 10 nM; GI50 (ACHN): < 10 nM; GI50 (RXF 393): < 10 nM; GI50 (TK-10): < 0.01 µM; GI50 (DU-145): < 10 nM; GI50 (NCI/ADR-RES): < 10 nM; GI50 (MDA-MB-231/ATCC): 10 nM; GI50 (MDA-MB-435): < 10 nM; GI50 (BT-549): < 10 nM; GI50 (T-47D): > 1000 µM |
| COc1ccc(C2C(c3ccccc3)C(=O)N2c2cc(OC)c(OC)c(OC)c2)cc1 (stereo not drawn) [Compound 8, 4-(4-Methoxy-phenyl)-3-phenyl-1-(3,4,5-trimethoxy-phenyl)-azetidin-2-one] | 0.034 µM | 108 °C | 29.3 nM | 238 nM | 22.7 µM | 263 nM | 427 nM | 198 nM | 166 nM | 349 nM | 170 nM | 42.7 nM | 48.7 nM | 354 nM | 35 nM | 280 nM | 95 nM | 67.6 nM | 132 nM | > 100 µM | GI50 (SK-MEL-28): 405 nM; GI50 (UACC-257): 27.9 µM; GI50 (IGROV1): 285 nM; GI50 (OVCAR-4): 82.5 nM; GI50 (OVCAR-5): 668 nM; GI50 (OVCAR-8): 125 nM; GI50 (786-0): 432 nM; GI50 (A498): 37.5 nM; GI50 (ACHN): 138 nM; GI50 (RXF 393): 36.5 nM; GI50 (TK-10): 6.78 µM; GI50 (DU-145): 56.9 nM; GI50 (NCI/ADR-RES): 42.5 nM; GI50 (MDA-MB-231/ATCC): 200 nM; GI50 (MDA-MB-435): 23.9 nM; GI50 (BT-549): 117 nM; GI50 (T-47D): > 100 µM |
